Laboratory results: PubChem BioAssay AID248 (DTP/NCI, 2004)
Inconclusive results and toxic doses are left out. No stated cut-off is given here; in the data, active means T/C of 150% or more; inactive means T/C below 125%.

System: L1210 leukemia ip in BDF1 mice, survival T/C
Experiment: NCI In Vivo Anticancer Drug Screen. Data for tumor model L1210 Leukemia (intraperitoneal) in B6D2F1 (BDF1) mice
Settings: endpoint: mean survival time, higher = longer survival
Method in brief: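 Tumor cells were implanted, animals were treated, and survival was followed. The result divides the treated measurement by the vehicle-control measurement.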

[1] = dose: 100.0 mg/kg/injection, schedule: Q01DX001 (ip), vehicle: saline
[2] = dose: 200.0 mg/kg/injection, schedule: Q01DX001 (ip), vehicle: saline
[3] = dose: 400.0 mg/kg/injection, schedule: Q01DX001 (ip), vehicle: saline
[4] = dose: 100.0 mg/kg/injection, schedule: Q04DX003 (ip), vehicle: saline
[5] = dose: 200.0 mg/kg/injection, schedule: Q04DX003 (ip), vehicle: saline
[6] = dose: 400.0 mg/kg/injection, schedule: Q04DX003 (ip), vehicle: saline
[7] = dose: 100.0 mg/kg/injection, schedule: Q04DX002 (ip), vehicle: Klucel (hydroxypropylcellulose) (HPC)
[8] = dose: 200.0 mg/kg/injection, schedule: Q04DX002 (ip), vehicle: Klucel (hydroxypropylcellulose) (HPC)
[9] = dose: 400.0 mg/kg/injection, schedule: Q04DX002 (ip), vehicle: Klucel (hydroxypropylcellulose) (HPC)
[10] = dose: 25.0 mg/kg/injection, schedule: Q04DX003 (ip), vehicle: saline with Tween-80
[11] = dose: 100.0 mg/kg/injection, schedule: Q01DX009 (ip), vehicle: saline
[12] = dose: 200.0 mg/kg/injection, schedule: Q01DX009 (ip), vehicle: saline
[13] = dose: 400.0 mg/kg/injection, schedule: Q01DX009 (ip), vehicle: saline

Measured: T/C

Cc1cc2c3ccccc3ccc2[n+]2ccccc12
inactive: dose: 4.5 mg/kg/injection, schedule: Q01DX009 (ip), vehicle: acetone 115 % of control | dose: 4.5 mg/kg/injection, schedule: Q01DX009 (ip), vehicle: saline 100 % of control | dose: 9.0 mg/kg/injection, schedule: Q01DX009 (ip), vehicle: acetone 120 % of control | dose: 9.0 mg/kg/injection, schedule: Q01DX009 (ip), vehicle: saline 110 % of control | dose: 18.0 mg/kg/injection, schedule: Q01DX009 (ip), vehicle: acetone 115 % of control | dose: 18.0 mg/kg/injection, schedule: Q01DX009 (ip), vehicle: saline 120 % of control | [1] 107 % of control

Cc1cc2ccccc2nc1-c1ccccc1F
inactive: [1] 97 % of control | [2] 94 % of control | [3] 88 % of control

O=C(Nc1cc([N+](=O)[O-])ccc1O)Nc1cc([N+](=O)[O-])ccc1F
inactive: dose: 100.0 mg/kg/injection, schedule: Q04DX003 (ip), vehicle: Klucel (hydroxypropylcellulose) (HPC) 100 % of control | dose: 200.0 mg/kg/injection, schedule: Q04DX003 (ip), vehicle: Klucel (hydroxypropylcellulose) (HPC) 94 % of control | dose: 400.0 mg/kg/injection, schedule: Q04DX003 (ip), vehicle: Klucel (hydroxypropylcellulose) (HPC) 98 % of control

CCCCCCCCCc1ccc(OC(C)OCCOCCOCC)cc1 (stereo not drawn)
inactive: dose: 100.0 mg/kg/injection, schedule: Q04DX002 (ip), vehicle: saline 97 % of control | dose: 200.0 mg/kg/injection, schedule: Q04DX002 (ip), vehicle: saline 100 % of control | dose: 400.0 mg/kg/injection, schedule: Q04DX002 (ip), vehicle: saline 105 % of control

N#CCCc1ccnc2ccccc12
inactive: [4] 100 % of control | [5] 102 % of control | [6] 100 % of control

Cc1nn(-c2ccc(Cl)cc2)c(C)c1N=O
inactive: dose: 25.0 mg/kg/injection, schedule: Q01DX001 (ip), vehicle: saline with Tween-80 98 % of control | dose: 50.0 mg/kg/injection, schedule: Q01DX001 (ip), vehicle: saline with Tween-80 95 % of control | dose: 100.0 mg/kg/injection, schedule: Q01DX001 (ip), vehicle: saline with Tween-80 104 % of control

O=C1C=C(Nc2ccc(Cl)cc2)c2ccccc2C1=O
inactive: dose: 100.0 mg/kg/injection, schedule: Q01DX001 (ip), vehicle: other 98 % of control | dose: 200.0 mg/kg/injection, schedule: Q01DX001 (ip), vehicle: other 90 % of control | dose: 400.0 mg/kg/injection, schedule: Q01DX001 (ip), vehicle: other 95 % of control

O=C1/C(=C\c2ccc(Cl)c(Cl)c2)N2CCC1CC2
inactive: [7] 96 % of control | [8] 104 % of control | [9] 114 % of control

Cc1cc(C)[c]([Hg][Cl])c(C)c1
inactive: dose: 6.0 mg/kg/injection, schedule: Q01DX009 (ip), vehicle: saline with Tween-80 100 % of control | dose: 6.0 mg/kg/injection, schedule: Q04DX003 (ip), vehicle: saline with Tween-80 94 % of control | dose: 12.0 mg/kg/injection, schedule: Q01DX009 (ip), vehicle: saline with Tween-80 87 % of control | dose: 12.0 mg/kg/injection, schedule: Q04DX003 (ip), vehicle: saline with Tween-80 103 % of control | dose: 25.0 mg/kg/injection, schedule: Q01DX009 (ip), vehicle: saline with Tween-80 90 % of control | [10] 92 % of control

c1cc2c3c(ccc4c3c1CCC4)CCC2
inactive: dose: 100.0 mg/kg/injection, schedule: Q04DX002 (ip), vehicle: gum acacia 91 % of control | dose: 200.0 mg/kg/injection, schedule: Q04DX002 (ip), vehicle: gum acacia 100 % of control | dose: 400.0 mg/kg/injection, schedule: Q04DX002 (ip), vehicle: gum acacia 95 % of control

NC1=NCCN1c1cccc2ccccc12
inactive: dose: 75.0 mg/kg/injection, schedule: Q01DX001 (ip), vehicle: carboxymethylcellulose (CMC) 102 % of control | dose: 150.0 mg/kg/injection, schedule: Q01DX001 (ip), vehicle: carboxymethylcellulose (CMC) 98 % of control

Nc1ccc2c3c(cccc13)C(=O)OC2=O
inactive: dose: 100.0 mg/kg/injection, schedule: Q01DX001 (ip), vehicle: Klucel (hydroxypropylcellulose) (HPC) 91 % of control | [11] 92 % of control | dose: 200.0 mg/kg/injection, schedule: Q01DX001 (ip), vehicle: Klucel (hydroxypropylcellulose) (HPC) 94 % of control | [12] 95 % of control | dose: 400.0 mg/kg/injection, schedule: Q01DX001 (ip), vehicle: Klucel (hydroxypropylcellulose) (HPC) 94 % of control | [13] 90 % of control

CC(=O)C1(C)OC(c2ccc(F)cc2)=NC1=O (stereo not drawn)
inactive: [1] 102 % of control | [2] 102 % of control | [3] 98 % of control

CCCCCc1ccccc1
inactive: dose: 200.0 mg/kg/injection, schedule: Q01DX Z (ip), vehicle: carboxymethylcellulose (CMC) 103 % of control | dose: 400.0 mg/kg/injection, schedule: Q01DX Z (ip), vehicle: carboxymethylcellulose (CMC) 108 % of control | dose: 800.0 mg/kg/injection, schedule: Q01DX Z (ip), vehicle: carboxymethylcellulose (CMC) 91 % of control

CCCCCCC1CCCCN1 (stereo not drawn)
inactive: dose: 5.0 mg/kg/injection, schedule: Q01DX001 (ip), vehicle: saline 104 % of control | dose: 10.0 mg/kg/injection, schedule: Q01DX001 (ip), vehicle: saline 96 % of control | dose: 12.5 mg/kg/injection, schedule: Q04DX003 (ip), vehicle: saline with Tween-80 103 % of control | dose: 20.0 mg/kg/injection, schedule: Q01DX001 (ip), vehicle: saline 98 % of control | [10] 98 % of control | dose: 40.0 mg/kg/injection, schedule: Q01DX001 (ip), vehicle: saline 96 % of control | dose: 50.0 mg/kg/injection, schedule: Q04DX003 (ip), vehicle: saline with Tween-80 103 % of control

CN(C)CCC(N)c1cccc2ccccc12 (stereo not drawn)
inactive: dose: 25.0 mg/kg/injection, schedule: Q04DX002 (ip), vehicle: saline with Tween-80 91 % of control | dose: 50.0 mg/kg/injection, schedule: Q04DX002 (ip), vehicle: saline with Tween-80 116 % of control | dose: 100.0 mg/kg/injection, schedule: Q04DX002 (ip), vehicle: saline with Tween-80 98 % of control

NN1Cc2ccc3c4c(ccc(c24)C1)C=C3
inactive: dose: 15.0 mg/kg/injection, schedule: Q01DX001 (ip), vehicle: carboxymethylcellulose (CMC) 108 % of control | dose: 30.0 mg/kg/injection, schedule: Q01DX001 (ip), vehicle: carboxymethylcellulose (CMC) 97 % of control | dose: 60.0 mg/kg/injection, schedule: Q01DX001 (ip), vehicle: carboxymethylcellulose (CMC) 101 % of control

CCCCCCCCCCCCCCCCCC(=O)NN=C1CCCC1
inactive: dose: 100.0 mg/kg/injection, schedule: Q01DX009 (ip), vehicle: Klucel (hydroxypropylcellulose) (HPC) 95 % of control | dose: 200.0 mg/kg/injection, schedule: Q01DX009 (ip), vehicle: Klucel (hydroxypropylcellulose) (HPC) 93 % of control | dose: 400.0 mg/kg/injection, schedule: Q01DX009 (ip), vehicle: Klucel (hydroxypropylcellulose) (HPC) 107 % of control

O=C(O)CSc1ccc([N+](=O)[O-])cc1[N+](=O)[O-]
inactive: [7] 100 % of control | [8] 96 % of control | [9] 96 % of control

O=C(CCC(=O)c1ccccc1)OCc1ccccc1
inactive: [7] 96 % of control | [8] 86 % of control

O=C(O)CSC(CC(=O)O)C(F)(F)C(F)(F)C(F)(F)F (stereo not drawn)
inactive: [11] 100 % of control | [4] 96 % of control | [12] 97 % of control | [5] 98 % of control | [13] 104 % of control | [6] 93 % of control
